Laboratory results as given in ChEMBL document CHEMBL1131357, “New bronchodilators selected by molecular topology” (1998).

Key:
Type in all cases: functional
Cavia porcellus [1] = species on record: Cavia porcellus; assay: Percent relaxation using isolated guinea pig trachea.
Cavia porcellus [2] = species on record: Cavia porcellus; assay: Percent relaxation of isolated guinea pig trachea.
Cavia porcellus [3] = species on record: Cavia porcellus; assay: pD2 value (pD2 = -log EC50) was calculated using indometazine in guinea pig trachea
Cavia porcellus [4] = species on record: Cavia porcellus; assay: Compound was evaluated for the percent of relaxation using isolated guinea pig trachea
Cavia porcellus [5] = species on record: Cavia porcellus; assay: Compound was evaluated for the percent of relaxation using isolated guinea pig trachea at a dose of 1 mM

O=C(O)c1ccc2c(c1)S(=O)(=O)c1ccccc1C2=O
Relaxation (Cavia porcellus [1]): 85%
pD2 (Cavia porcellus [2]): 4.65

N#Cc1ccc2c(c1)S(=O)(=O)c1ccccc1C2=O
Relaxation (Cavia porcellus [1]): 13%
pD2 (Cavia porcellus [2]): 4.53

Cc1nc2c(o1)CC1C=CC=CC1=CC2O (stereo not drawn)
Relaxation (Cavia porcellus [1]): 37%
pD2 (Cavia porcellus [2]): 4.8

Cc1ccc(S(=O)(=O)N2CCCSCC2)cc1
Relaxation (Cavia porcellus [1]): 0%

COC(=O)C1C2CCC(O2)C1C(=O)OC (stereo not drawn)
Relaxation (Cavia porcellus [1]): 28%
pD2 (Cavia porcellus [2]): 4.8

C[C@]12CCC(=O)C=C1CCCC2=O
Relaxation (Cavia porcellus [1]): 22%
pD2 (Cavia porcellus [2]): 4.5

NC(=O)c1ccc2c(c1)S(=O)(=O)c1ccccc1C2=O
Relaxation (Cavia porcellus [1]): 18%
pD2 (Cavia porcellus [2]): 5.69

O=C(CN1CCNCC1)N1CCCC1
Relaxation (Cavia porcellus [1]): 59%
pD2 (Cavia porcellus [2]): 4.6

CC(=O)CC(c1ccc([N+](=O)[O-])cc1)c1c(O)c2ccccc2oc1=O (stereo not drawn) [ACENOCOUMAROL]
Relaxation (Cavia porcellus [1]): 69%
pD2 (Cavia porcellus [2]): 4.55

Nc1nccs1 [AMINOTHIAZOLE]
Relaxation (Cavia porcellus [1]): 19%
pD2 (Cavia porcellus [2]): 4.4

Oc1ccc2c(O)c3ccccc3cc2c1O [ANTHRAROBIN]
Relaxation (Cavia porcellus [1]): 92%
pD2 (Cavia porcellus [2]): 5.69

Cc1c(C2(c3cc(Br)c(O)c(Br)c3C)OS(=O)(=O)c3ccccc32)cc(Br)c(O)c1Br [BROMCRESOL GREEN]
Relaxation (Cavia porcellus [1]): 21%
pD2 (Cavia porcellus [2]): 4.5

O=S1(=O)OC(c2cc(Br)c(O)c(Br)c2)(c2cc(Br)c(O)c(Br)c2)c2ccccc21 [BROMOPHENOL BLUE]
Relaxation (Cavia porcellus [1]): 51%
pD2 (Cavia porcellus [2]): 4.5

O=C(O)c1cn(C2CC2)c2cc(N3CCNCC3)c(F)cc2c1=O [CIPROFLOXACIN]
Relaxation (Cavia porcellus [1]): 0%

O=C1c2ccccc2S(=O)(=O)c2cc(-c3nn[nH]n3)ccc21 [DOXANTRAZOLE]
Relaxation (Cavia porcellus [1]): 91%
pD2 (Cavia porcellus [2]): 5.5

OC(Cn1cncn1)(Cn1cncn1)c1ccc(F)cc1F [FLUCONAZOLE]
Relaxation (Cavia porcellus [1]): -51%

COC1=CC(=O)C[C@@H](C)[C@]12Oc1c(Cl)c(OC)cc(OC)c1C2=O [GRISEOFULVIN]
Relaxation (Cavia porcellus [1]): 74%
pD2 (Cavia porcellus [2]): 4.8

CCCCC(CC)CN1CN(CC(CC)CCCC)CC(C)(N)C1 (stereo not drawn) [HEXETIDINE]
Relaxation (Cavia porcellus [1]): -94%

Cc1occc(=O)c1O [MALTOL]
Relaxation (Cavia porcellus [1]): 16%
pD2 (Cavia porcellus [2]): 5.25

CCN(CC)c1ccc2nc3c4ccccc4c(=O)cc-3oc2c1 [NILE RED]
Relaxation (Cavia porcellus [1]): 0%

CCn1cc(C(=O)O)c(=O)c2cc(F)c(N3CCNCC3)cc21 [NORFLOXACIN]
Relaxation (Cavia porcellus [1]): 0%

CCCCC1C(=O)N(c2ccccc2)N(c2ccccc2)C1=O [PHENYLBUTAZONE]
Relaxation (Cavia porcellus [1]): 28%
pD2 (Cavia porcellus [3]): 4.69

CCn1cc(C(=O)O)c(=O)c2cnc(N3CCCC3)nc21 [PIROMIDIC ACID]
Relaxation (Cavia porcellus [1]): 25%
pD2 (Cavia porcellus [2]): 5.3

Cc1c(C(C)C)c(=O)n(-c2ccccc2)n1C [PROPYPHENAZONE]
Relaxation (Cavia porcellus [1]): 29%
pD2 (Cavia porcellus [2]): 5.69

C[n+]1cc2c3c(ccc2c2ccc4cc5c(cc4c21)OCO5)OCO3 [SANGUINARIUM]
Relaxation (Cavia porcellus [1]): -89%

CN1C(C(=O)Nc2ccccn2)=C(O)c2sccc2S1(=O)=O [TENOXICAM]
Relaxation (Cavia porcellus [1]): 32%
pD2 (Cavia porcellus [3]): 5.2

Cn1c(=O)c2nc[nH]c2n(C)c1=O.O [THEOPHYLLINE]
Relaxation (Cavia porcellus [4]): 77.1%
pD2 (Cavia porcellus [2]): 4.69
Emax at 1000 µM (Cavia porcellus [5]): 100%
